The text below walks through data of patent US20050234065A1, “Dipeptidyl peptidase-IV inhibitors” (Pfizer Inc, priority 2004, published 2005).

The target of one assay is T1, DPP-IV (Homo sapiens, UniProt P27487).
T1 construct: purchased Enzyme Systems Products SPE-01
T1 sequence (P27487 whole entry, species assumed): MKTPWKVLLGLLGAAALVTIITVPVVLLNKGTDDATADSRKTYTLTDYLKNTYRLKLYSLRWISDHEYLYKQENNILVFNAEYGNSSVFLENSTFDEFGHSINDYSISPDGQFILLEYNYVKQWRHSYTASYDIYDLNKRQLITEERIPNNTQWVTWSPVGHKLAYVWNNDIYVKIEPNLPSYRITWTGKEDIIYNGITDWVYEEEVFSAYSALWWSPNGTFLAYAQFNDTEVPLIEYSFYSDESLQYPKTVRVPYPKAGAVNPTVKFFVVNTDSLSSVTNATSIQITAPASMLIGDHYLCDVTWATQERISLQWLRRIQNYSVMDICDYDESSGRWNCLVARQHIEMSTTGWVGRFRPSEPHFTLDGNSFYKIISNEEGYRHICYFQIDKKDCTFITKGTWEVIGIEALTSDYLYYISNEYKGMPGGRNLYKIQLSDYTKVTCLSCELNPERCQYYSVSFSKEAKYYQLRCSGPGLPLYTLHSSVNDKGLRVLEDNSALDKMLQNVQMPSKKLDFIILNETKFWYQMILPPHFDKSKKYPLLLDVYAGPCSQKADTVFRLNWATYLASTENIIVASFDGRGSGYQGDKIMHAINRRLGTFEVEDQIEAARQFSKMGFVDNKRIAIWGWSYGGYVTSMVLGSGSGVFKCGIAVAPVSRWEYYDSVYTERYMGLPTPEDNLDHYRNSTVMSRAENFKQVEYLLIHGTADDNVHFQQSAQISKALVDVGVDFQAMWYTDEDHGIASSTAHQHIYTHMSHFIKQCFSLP
The assay can be described thus: In vitro assay for dipeptidyl peptidase inhibition. It counts as biochemical. The following applies: IC50 (concentration of test compound required for 50% inhibition), hydrochloride salts; Gly-Pro-4-methoxy B naphthylamide substrate; overnight at 37° C. As for the experimental part: 150 μL of an enzyme-substrate solution was pipetted into microtiter wells of a polystyrene 96-well plate, and maintained at 4° C. The enzyme-substrate solution comprised 50 μM Gly-Pro-4-methoxy B naphthylamide HCl in 50 mM Tris assay buffer pH 7.3 containing 0.1M sodium chloride, 0.1% (v/v) Triton and 50 μU/mL DPP-IV (Enzyme Systems Products Cat#SPE-01, DPP-IV 5 mU/mL stock). 5 μL/well of compounds of Formula (I) were added, bringing the final compound of Formula (I) concentrations to 3 μM-10 nM per well.
Controls. Enzyme was omitted from four (4) wells, as a reagent blank. 5 μL of 3 mM Diprotin A was added to four wells as a positive quality control, providing a final Diprotin A concentration of 100 μM. To measure total enzyme activity (i.e. a negative control), without the influence of any compounds of Formula (I), 5 μL of distilled water was added to four wells.
The entire assay was incubated overnight (about 14-18 hours) at 37° C.
Regarding `CN(CC(=O)N[C@H]1CC[C@H]([C@H](N)C(=O)N2CCC(F)(F)C2)CC1)C(=O)Oc1ccccc1` [Example 33, ({trans-4-[(1S)-1-amino-2-(3,3-difluoro-pyrrolidin-1-yl)-2-oxo-ethyl]-cyclohexylcarbamoyl}-methyl)-methyl-carbamic acid phenyl ester], the IC50 was no more than 100 nM.

The assay is the same for the next values; noted with them: hydrochloride salts; Gly-Pro-4-methoxy B naphthylamide substrate; overnight at 37° C.; read-out: IC50 (concentration of test compound required for 50% inhibition).
In the case of `NC(=O)c1nccnc1C(=O)N[C@H]1CC[C@H]([C@H](N)C(=O)N2CCCC2)CC1` [Example 19, (S)-pyrazine-2,3-dicarboxylic acid amide [trans-4-(1-amino-2-oxo-2-pyrrolidin-1-yl-ethyl)-cyclohexyl]-amide], the IC50 is no more than 100 nM. The same measure, in the same setting: next, `N[C@H](C(=O)N1CCCC1)[C@H]1CC[C@H](N2Cc3sccc3C2=O)CC1` [Example 41, 5-[trans-4-((1S)-1-amino-2-oxo-2-pyrrolidin-1-yl-ethyl)-cyclohexyl]-5,6-dihydro-thieno[2,3-c]pyrrol-4-one]: no more than 100 nM; `N[C@H](C(=O)N1CCCC1)[C@H]1CC[C@H](NC(=O)CC[C@H]2C(=O)OCN2C(=O)OCc2ccccc2)CC1` [Example 10, (4S)-4-{2-[trans-4-((1S-)-1-amino-2-oxo-2-pyrrolidin-1-yl-ethyl)-cyclohexylcarbamoyl]-ethyl}-5-oxo-oxazolidine-3-carboxylic acid benzyl ester]: no more than 100 nM. As to `N#C[C@@H]1CCCN1C(=O)[C@@H](N)[C@H]1CC[C@H](NC(=O)c2cn3cccc3cn2)CC1` [Example 56, N-(trans-4-{(S)-1-amino-2-[(2S)-2-cyanopyrrolidin-1-yl]-2-oxoethyl}cyclohexyl)pyrrolo[1,2-a]pyrazine-3-carboxamide], the IC50 is no more than 100 nM. In the case of `CN(CC(=O)N[C@H]1CC[C@H]([C@H](N)C(=O)N2CCCC2)CC1)C(=O)OCc1ccccc1` [Example 34, (S)-{[trans-4-(1-amino-2-oxo-2-pyrrolidin-1-yl-ethyl)-cyclohexylcarbamoyl]-methyl}-methyl-carbamic acid benzyl ester], the IC50 was 100 to 500 nM.

For the molecule `N[C@H](C(=O)N1CCCC1)[C@H]1CC[C@H](N2Cc3ccccc3S2(=O)=O)CC1` [Example 50, (2S)-2-amino-2-[trans-4-(1,1-dioxo-1,3-dihydro-1λ^6-benzo[d]isothiazol-2-yl)-cyclohexyl]-1-pyrrolidin-1-yl-ethanone], the IC50 is no more than 100 nM.

On to `N[C@H](C(=O)N1CCCC1)[C@H]1CC[C@H](NC(=O)C[C@H]2C(=O)OCN2C(=O)OCc2ccccc2)CC1` [Example 13, (4S)-4-{[trans-4-((1S)-1-amino-2-oxo-2-pyrrolidin-1-yl-ethyl)-cyclohexylcarbamoyl]-methyl}-5-oxo-oxazolidine-3-carboxylic acid benzyl ester], for which the IC50 was no more than 100 nM.

On to `N[C@H](C(=O)N1CCCC1)[C@H]1CC[C@@H](NC(=O)CCC2C(=O)OCN2C(=O)OCc2ccccc2)CC1` (stereo in doubt) [Example 4, (4S)-4-{2-[cis-4-((1S)-1-amino-2-oxo-2-pyrrolidin-1-yl-ethyl)-cyclohexylcarbamoyl]-ethyl}-5-oxo-oxazolidine-3-carboxylic acid benzyl ester], for which the IC50 lay within 100 to 500 nM. The same measure, in the same setting: next, `C#Cc1coc2cnc(C(=O)N[C@H]3CC[C@H]([C@H](N)C(=O)N4CCC[C@H]4C#N)CC3)cc12` [Example 62, N-(trans-4-{(S)-1-amino-2-[(2S)-2-cyanopyrrolidin-1-yl]-2-oxoethyl}cyclohexyl)-3-ethynylfuro[2,3-c]pyridine-5-carboxamide]: no more than 100 nM. `N[C@H](C(=O)N1CCCC1)[C@H]1CC[C@H](N2C(=O)O[C@@H](c3ccccc3)C2=O)CC1` [Example 28, 3-[trans-4-((1S)-1-amino-2-oxo-2-pyrrolidin-1-yl-ethyl)-cyclohexyl]-(5S)-5-phenyl-oxazolidine-2,4-dione]: the IC50 fell in the range of 100 to 500 nM.

For `N#C[C@@H]1CCCN1C(=O)[C@@H](N)[C@H]1CC[C@H](NC(=O)c2cc3ccsc3cn2)CC1` [Example 60, N-(trans-4-{(1S)-1-amino-2-[(2S)-2-cyanopyrrolidin-1-yl]-2-oxoethyl}cyclohexyl)thieno[2,3-c]pyridine-5-carboxamide], the IC50 is no more than 100 nM.

Regarding `CC1(C)COc2cnc(C(=O)N[C@H]3CC[C@H]([C@H](N)C(=O)N4CCC[C@H]4C#N)CC3)cc21` [Example 55, N-(trans-4-{(1S)-1-amino-2-[(2S)-2-cyanopyrrolidin-1-yl]-2-oxoethyl}cyclohexyl)-3,3-dimethyl-2,3-dihydrofuro[2,3-c]pyridine-5-carboxamide], the IC50 is no more than 100 nM. On the same count and under the same terms, in the case of `N[C@H](C(=O)N1CCCC1)[C@H]1CC[C@H](NC(=O)[C@H]2COCN2C(=O)OCc2ccccc2)CC1` [Example 8, (4R)-4-[trans-4-((1S)-1-amino-2-oxo-2-pyrrolidin-1-yl-ethyl)-cyclohexylcarbamoyl]-oxazolidine-3-carboxylic acid benzyl ester] it was 100 to 500 nM; in that of `N[C@H](C(=O)N1CCCC1)[C@H]1CC[C@H](N2Cc3nccnc3C2=O)CC1` [Example 46, 6-[trans-4-((1S)-1-amino-2-oxo-2-pyrrolidin-1-yl-ethyl)-cyclohexyl]-6,7-dihydro-pyrrolo[3,4-b]pyrazin-5-one], no more than 100 nM; in that of `N[C@H](C(=O)N1CCCC1)[C@H]1CC[C@H](NC(=O)[C@@H]2COC(=O)N2Cc2ccccc2)CC1` [Example 16, (4S)-3-benzyl-2-oxo-oxazolidine-4-carboxylic acid [trans-4-((1S)-1-Amino-2-oxo-2-pyrrolidin-1-yl-ethyl)-cyclohexyl]-amide], no more than 100 nM. As to `N[C@H](C(=O)N1CCCC1)[C@H]1CC[C@H](NC(=O)CN2C(=O)c3ccccc3/C2=C\c2ccccc2)CC1` [Example 20, N-[trans-4-(1-(1S)-amino-2-oxo-2-pyrrolidin-1-yl-ethyl)-cyclohexyl]-2-(1-benzylidene-3-oxo-1,3-dihydro-isoindol-2-yl)-acetamide], the IC50 is no more than 100 nM. In the case of `N[C@H](C(=O)N1CCCC1)[C@H]1CC[C@H](N2C(=O)c3nccnc3C2=O)CC1` [Example 22, 6-[trans-4-((1S)-1-amino-2-oxo-2-pyrrolidin-1-yl-ethyl)-cyclohexyl]-pyrrolo[3,4-b]pyrazine-5,7-dione], the IC50 was no more than 100 nM. Same read-out and setting: next, `N[C@H](C(=O)N1CCC(F)(F)C1)[C@H]1CC[C@H](NC(=O)[C@@H]2CNC(=O)N2C(=O)OCc2ccccc2)CC1` [Example 29, (5S)-5-{trans-4-[(1S)-1-amino-2-(3,3-difluoro-pyrrolidin-1-yl)-2-oxo-ethyl]-cyclohexylcarbamoyl}-2-oxo-imidazolidine-1-carboxylic acid benzyl ester]: no more than 100 nM; `NC(C(=O)N1CCCC1)C1CCC(NC(=O)C2CC(O)CN2)CC1` [Example 21, (1S,4R)-4-hydroxy-pyrrolidine-2-carboxylic acid [trans-4-((1S)-1-amino-2-oxo-2-pyrrolidin-1-yl-ethyl)-cyclohexyl]-amide]: 100 to 500 nM. Same read-out and setting: next, `N#C[C@@H]1CCCN1C(=O)[C@@H](N)[C@H]1CC[C@H](NC(=O)c2cc3cccn3cn2)CC1` [Example 47, pyrrolo[1,2-c]pyrimidine-3-carboxylic acid {trans-4-[(1S)-1-Amino-2-((2S)-2-cyano-pyrrolidin-1-yl)-2-oxo-ethyl]-cyclohexyl}-amide]: no more than 100 nM; `N#C[C@@H]1CCCN1C(=O)[C@@H](N)[C@H]1CC[C@H](NC(=O)c2cc3occc3cn2)CC1` [Example 61, N-(trans-4-{(1S)-1-amino-2-[(2S)-2-cyanopyrrolidin-1-yl]-2-oxoethyl}cyclohexyl)furo[3,2-c]pyridine-6-carboxamide]: no more than 100 nM. On the same count and under the same terms, in the case of `N[C@H](C(=O)N1CCC(F)(F)C1)[C@H]1CC[C@H](NC(=O)[C@@H]2C[C@@H](O)CN2C(=O)OCc2ccccc2)CC1` [Example 31, 2-{trans-4-[1-(1S)-amino-2-(3,3-difluoro-pyrrolidin-1-yl)-2-oxo-ethyl]-cyclohexylcarbamoyl}-(4R)-4-hydroxy-pyrrolidine-1-carboxylic acid benzyl ester] it was no more than 100 nM; in that of `N#C[C@@H]1CCCN1C(=O)[C@@H](N)[C@H]1CC[C@H](N2Cc3ncccc3C2=O)CC1` [Example 44, 1-{(1S)-amino-[trans-4-(5-oxo-5,7-dihydro-pyrrolo[3,4-b]pyridin-6-yl)-cyclohexyl]-acetyl)-(2S)-pyrrolidine-2-carbonitrile], no more than 100 nM. For `N#C[C@@H]1CCCN1C(=O)[C@@H](N)[C@H]1CC[C@H](NC(=O)c2cc3sccc3cn2)CC1` [Example 57, N-(trans-4-{(1S)-1-amino-2-[(2S)-2-cyanopyrrolidin-1-yl]-2-oxoethyl}cyclohexyl)thieno[3,2-c]pyridine-6-carboxamide], the IC50 was no more than 100 nM. Still for that read-out and setting: in the case of `Cn1ccc2cc(C(=O)N[C@H]3CC[C@H]([C@H](N)C(=O)N4CCC[C@H]4C#N)CC3)ncc21` [Example 54, N-(trans-4-{(1S)-1-Amino-2-[(2S)-2-cyanopyrrolidin-1-yl]-2-oxoethyl}cyclohexyl)-1-methyl-1H-pyrrolo[2,3-c]pyridine-5-carboxamide] it was no more than 100 nM; in that of `N#C[C@@H]1CCCN1C(=O)[C@@H](N)[C@H]1CC[C@H](NC(=O)c2cc3ccoc3cn2)CC1` [Example 58, N-(trans-4-{(1S)-1-amino-2-[(2S)-2-cyanopyrrolidin-1-yl]-2-oxoethyl}cyclohexyl) furo[2,3-c]pyridine-5-carboxamide], no more than 100 nM.
